Where two headings read alike, the source gives them in different places.
Tests used:
[1] = system: CAMA-1 Cells; assay: Cell proliferation inhibition, CTG (CelltiterGlo) method, alone or combined with fulvestrant; type: cell-based; conditions: compound alone; for IC50: Homo sapiens, CAMA-1, 168 h, 7 days
Experimental: a). BT-474 cells were cultured in Hybri-Care medium supplemented with 1% antibiotics and 10% FBS, and incubated in the condition of 37°C with 5% CO2; b). MCF-7 cells were cultured in EMEM medium supplemented with 1% antibiotics, 0.01 mg/mL insulin, and 10% FBS, and incubated in the condition of 37°C with 5% CO2; c). ZR-75-1 cells were cultured in RPMI-1640 medium supplemented with 1% antibiotics and 10% FBS, and incubated in the condition of 37°C with 5% CO2; d). T47D cells were cultured in RPMI-1640 medium supplemented with 1% antibiotics, 0.2 U/mL insulin, and 10% FBS, and incubated in the condition of 37°C with 5% CO2; e) CAMA-1 cells were cultured in EMEM medium supplemented with 1% antibiotics and 10% FBS, and incubated in the condition of 37°C with 5% CO2.
a). Cells were routinely cultured until reaching 80%-90% confluence and when the required cell number was reached, they were harvested; b). Resuspended in the corresponding medium, counted, and prepared into a cell suspension with appropriate density; c). The cell suspension was added to a 384-well plate at 40 µL per well. Table 1. Plating densities of different cell lines
d). The cells were cultured overnight in an incubator at 37°C with 5% CO2 .
a). The compound of Formula (A) was serially diluted 3-fold for 10 concentrations starting from a stock solution of 60 mM (using the monofumarate dihydrate of the compound of Formula (A), with the concentration calculated based on the free base of the compound of Formula (A); the compound of Formula (A) or salt thereof was prepared with reference to the preparation method disclosed in WO2022017448A1); b). […] Cells supplemented with DMSO served as control wells for high reading values; j). Cell-free medium served as control wells for low reading values. […]
a). […] The chemiluminescent signal values were read using an Envision instrument.
Using the inhibition rate data measured by monotherapy or single-concentration combination therapy in Section 2.4, IC50 was calculated with GraphPad Prism 8 software. […]

[2] = Clinical trial of the compound of Formula (A) tablets as monotherapy: pharmacokinetics; type: in vivo, patients with advanced malignant solid tumors; conditions: 400mg Monotherapy; for half-life / AUC(0-t) / Cmax / Vd/F: 400 mg
From the text: All contents of the trial protocol with registration number CTR20211999 on the China Drug Clinical Trial Registration and Information Disclosure Platform and results thereof are incorporated herein by reference.
Study Objectives: To evaluate the safety and tolerability of the compound of Formula (A) in patients with advanced malignant solid tumors (including breast cancer and ovarian cancer) who have failed standard treatment, and to explore the maximum tolerated dose (MTD) of the compound of Formula (A), and determine the recommended phase II dose (RP2D). To evaluate the pharmacokinetic (PK) characteristics of the compound of Formula (A) following a single dose and continuous administration for 21 days in patients with advanced solid tumors. To assess the preliminary efficacy of the compound of Formula (A) in the treatment of advanced solid tumors.
Trial Design: The study was an open-label, single-arm, non-randomized clinical trial focusing on safety, efficacy, and pharmacokinetics. The first part was the dose-finding phase, and the second part was the dose-expansion phase.
A starting dose of 20 mg of the compound of Formula (A) was selected, with successive dose-finding groups set as 20 mg, 50 mg, 100 mg, 200 mg, 300 mg, and 400 mg. The administration regimen included once-daily single-dose administration (with a 7-day washout period) and multiple-dose administration (continuous administration for 21 days, 28 days as one cycle, treatment continued until intolerable toxicity, disease progression, or subject withdrawal).
The dose-expansion phase was initiated after the completion of the dose-finding phase. Based on the results of dose escalation, the dosage for the dose-expansion group was determined, with oral administration once daily (continuous administration for 21 days, 28 days as one cycle, and treatment will be continued until intolerable toxicity, disease progression, or subject withdrawal).
1) Safety and Tolerability: Maximum Tolerated Dose (MTD) and Dose-Limiting Toxicity (DLT); 2) PK Indicators: See Tables 13 and 14 below; 3) Efficacy Indicators: Objective Response Rate (ORR), Disease Control Rate (DCR), Duration of Response (DOR), and Progression-Free Survival (PFS). Table 13. PK Indicators of the compound of Formula (A) monotherapy in the dose-finding phase

[3] = Multiple Doses, n=8, dose-expansion phase
[4] = human, in vivo, oral, Single Dose, n=10, dose-finding phase

| SMILES | IC50 [1] [nM] | Maximum Inhibition Rate on CAMA-1 Cells ([1]; maximum value fitted by GraphPad Prism 8) [%] | CLss/F [2, 3] [L/h] | Cav,ss [2, 3] [ng/mL] | Cmin,ss [2, 3] [ng/mL] | Tmax,ss [2, 3] | CL/F ([2]; Single Dose, n=10, dose-finding phase) [L/h] | half-life ([2]; human, in vivo, oral, Multiple Doses, n=8, dose-expansion phase) [h] | AUC(0-t) ([2]; human, in vivo, oral, Multiple Doses, n=8, dose-expansion phase, read-out: AUC0-t,ss) [ng·h/mL] | Cmax ([2]; human, in vivo, oral, Multiple Doses, n=8, dose-expansion phase, read-out: Cmax,ss) [ng/mL] | Vd/F ([2]; human, in vivo, oral, Multiple Doses, n=8, dose-expansion phase, read-out: Vss/F) [L] | half-life [2, 4] [h] | AUC(0-t) ([2]; human, in vivo, oral, Single Dose, n=10, dose-finding phase, read-out: AUC0-t) [ng·h/mL] | Cmax ([2]; human, in vivo, oral, Single Dose, n=10, dose-finding phase, read-out: Cmax) [ng/mL] | Vd/F ([2]; human, in vivo, oral, Single Dose, n=10, dose-finding phase, read-out: Vz/F) [L] | AUC ([2]; human, in vivo, oral, Multiple Doses, n=8, dose-expansion phase, read-out: AUC0-τ) [ng·h/mL] | Tmax [2, 4] [h] |
| --- | --- | --- | --- | --- | --- | --- | --- | --- | --- | --- | --- | --- | --- | --- | --- | --- | --- |
| CC(C)NC[C@@H](C(=O)N1CCN(c2ncnc3c2[C@H](C)CC(=O)N3)[C@H]2C[C@H]21)c1ccc(Cl)cc1 [The compound of Formula (A), (R)-4-((1S,6R)-5-((S)-2-(4-chlorophenyl)-3-(isopropylamino)propanoyl)-2,5-diazabicyclo[4.1.0]heptan-2-yl)-5-methyl-5,8-dihydropyrido[2,3-d]pyrimidin-7(6H)-one] | 1130 | 95.43 | 155.88 ± 81.87 | 131.73 ± 64.21 | 33.76 ± 14.66 | 3.00 [0,6.00] h | 186.378 ± 99.471 | 12.9 ± 4.19 | 3530 ± 1770 | 462 ± 245 | 2880 ± 1670 | 7.22 ± 1.91 | 2380 ± 1160 | 392 ± 178 | 1920 ± 1000 | 3160 ± 1540 | 3 |
| C[C@]12CC[C@@H]3c4ccc(O)cc4C[C@@H](CCCCCCCCC[S+]([O-])CCCC(F)(F)C(F)(F)F)[C@H]3[C@@H]1CC[C@@H]2O (stereo partly drawn) [Fulvestrant, reference compound] | > 100 |  |  |  |  |  |  |  |  |  |  |  |  |  |  |  |  |

— patent publication EP4729061A1, “USE OF AKT INHIBITOR IN PREPARATION OF DRUG FOR PREVENTING OR TREATING BREAST CANCER” (Nanjing Chia Tai Tianqing Pharmaceutical Co., Ltd., priority 2023, dated 2024)
